Columns and labels:
Type in all cases: in vivo
Kochia (Kochia scoparia) [1] = experiment: Test A preemergence; conditions: Bassia scoparia, pre-emergence, 240 h, preemergence, 0 to 100 scale where 0 is no effect and 100 is complete control, read-out: Kochia plant response rating
Method in brief: (§1)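 Treatment is preemergence as a directed soil spray after planting, or postemergence at the one- to two-leaf stage, with test chemical in a non-phytotoxic solvent mixture plus surfactant. Plants stay in the greenhouse about 10 d before visual injury scoring on a 0 to 100 scale versus untreated controls.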

[2] = tested on: barnyardgrass (Echinochloa crus-galli); experiment: Test A preemergence; conditions: Echinochloa crus-galli, pre-emergence, 240 h, preemergence, 0 to 100 scale where 0 is no effect and 100 is complete control, read-out: Barnyardgrass plant response rating
Method in brief: as §1

[3] = tested on: pigweed (Amaranthus retroflexus); experiment: Test A preemergence; conditions: Amaranthus retroflexus, pre-emergence, 240 h, preemergence, 0 to 100 scale where 0 is no effect and 100 is complete control, read-out: Pigweed plant response rating
[4] = tested on: ragweed (common ragweed, Ambrosia elatior); experiment: Test A preemergence; conditions: Ambrosia artemisiifolia, pre-emergence, 240 h, preemergence, 0 to 100 scale where 0 is no effect and 100 is complete control, read-out: Ragweed plant response rating
Method in brief: as §1

[5] = tested on: ryegrass, Italian (Italian ryegrass, Lolium multiflorum); experiment: Test A preemergence; conditions: Lolium multiflorum, pre-emergence, 240 h, preemergence, 0 to 100 scale where 0 is no effect and 100 is complete control, read-out: Ryegrass, Italian plant response rating
Method in brief: as §1

[6] = tested on: Galium (catchweed bedstraw, Galium aparine); experiment: Test A postemergence; conditions: Galium, post-emergence, 240 h, postemergence, read-out: Galium plant response rating
Method in brief: as §1

Kochia (Kochia scoparia) [7] = experiment: Test A postemergence; conditions: Bassia scoparia, post-emergence, 240 h, postemergence, read-out: Kochia plant response rating
Method in brief: as §1

[8] = tested on: barnyardgrass (Echinochloa crus-galli); experiment: Test A postemergence; conditions: Echinochloa crus-galli, post-emergence, 240 h, postemergence, read-out: Barnyardgrass plant response rating
Method in brief: as §1

[9] = tested on: blackgrass (Alopecurus myosuroides); experiment: Test A postemergence; conditions: Alopecurus myosuroides, post-emergence, 240 h, postemergence, read-out: Blackgrass plant response rating
Method in brief: as §1

corn (Zea mays) = experiment: Test A postemergence; conditions: Zea mays, post-emergence, 240 h, postemergence, read-out: Corn plant response rating
Method in brief: as §1

[10] = tested on: giant foxtail (Setaria faberii); experiment: Test A postemergence; conditions: Setaria faberi, post-emergence, 240 h, postemergence, read-out: Foxtail, Giant plant response rating
Method in brief: as §1

[11] = tested on: pigweed (Amaranthus retroflexus); experiment: Test A postemergence; conditions: Amaranthus retroflexus, post-emergence, 240 h, postemergence, read-out: Pigweed plant response rating
Method in brief: as §1

[12] = tested on: ragweed (common ragweed, Ambrosia elatior); experiment: Test A postemergence; conditions: Ambrosia artemisiifolia, post-emergence, 240 h, postemergence, read-out: Ragweed plant response rating
Method in brief: as §1

[13] = tested on: ryegrass, Italian (Italian ryegrass, Lolium multiflorum); experiment: Test A postemergence; conditions: Lolium multiflorum, post-emergence, 240 h, postemergence, read-out: Ryegrass, Italian plant response rating
Method in brief: as §1

[14] = tested on: wheat (Triticum aestivum); experiment: Test A postemergence; conditions: Triticum aestivum, post-emergence, 240 h, postemergence, read-out: Wheat plant response rating
Method in brief: as §1

[15] = 125 g ai/ha, visual injury on 0 to 100 scale (0 no effect, 100 complete control), approx. 10 d
[16] = 500 g ai/ha, 0 to 100 scale, 0 is no effect, 100 is complete control

CSc1ccccc1NC(=O)[C@H]1C(=O)NC[C@@H]1c1cc(F)c(F)c(F)c1 [Compound 1124]
pest or weed control at 125 g/ha (Kochia (Kochia scoparia) [1]; 125 g ai/ha, approx. 10 d): 70%
pest or weed control at 500 g/ha (Kochia (Kochia scoparia) [1]; 500 g ai/ha): 90%
pest or weed control at 125 g/ha ([2]; 125 g ai/ha, approx. 10 d): 60%
pest or weed control at 500 g/ha ([2]; 500 g ai/ha): 90%
pest or weed control at 125 g/ha ([3]; 125 g ai/ha, approx. 10 d): 50%
pest or weed control at 500 g/ha ([3]; 500 g ai/ha): 70%
pest or weed control at 125 g/ha ([4]; 125 g ai/ha, approx. 10 d): 0%
pest or weed control at 500 g/ha ([4]; 500 g ai/ha): 60%
pest or weed control at 125 g/ha ([5]; 125 g ai/ha, approx. 10 d): 0%
pest or weed control at 500 g/ha ([5]; 500 g ai/ha): 30%
pest or weed control at 125 g/ha [6, 15]: 50%
pest or weed control at 500 g/ha [6, 16]: 60%
pest or weed control at 125 g/ha (Kochia (Kochia scoparia) [7]; [15]): 60%
pest or weed control at 500 g/ha (Kochia (Kochia scoparia) [7]; [16]): 70%
pest or weed control at 125 g/ha [8, 15]: 60%
pest or weed control at 500 g/ha [8, 16]: 90%
pest or weed control at 125 g/ha [9, 15]: 0%
pest or weed control at 500 g/ha [9, 16]: 0%
plant injury at 125 g/ha (corn (Zea mays); [15]): 0%
plant injury at 500 g/ha (corn (Zea mays); [16]): 0%
pest or weed control at 125 g/ha [10, 15]: 60%
pest or weed control at 500 g/ha [10, 16]: 90%
pest or weed control at 125 g/ha [11, 15]: 0%
pest or weed control at 500 g/ha [11, 16]: 60%
pest or weed control at 125 g/ha [12, 15]: 0%
pest or weed control at 500 g/ha [12, 16]: 50%
pest or weed control at 125 g/ha [13, 15]: 0%
pest or weed control at 500 g/ha [13, 16]: 0%
plant injury at 125 g/ha [14, 15]: 0%
plant injury at 500 g/ha [14, 16]: 0%
